Laboratory results published in US20220273660A1, “MEK INHIBITOR FOR TREATMENT OF STROKE” (EDVINCE AB, priority 2019, published 2022).
Entries after “also recorded” stand apart in the source; their conditions may differ.

Assays:
[1] = system: rat basilar arteries (contractile ETB receptors); test: 48 h organ culture of basilar artery, S6c (ETB agonist)-induced contraction in wire myograph; format: cell-based
Procedure: Rats were sedated with O2/CO2 (30/70%) and sacrificed by decapitation. Brains were gently removed and chilled in a cold oxygenated buffer solution of the following composition: 119 mM NaCl, 4.6 mM KCl, 1.5 mM CaCl2, 1.2 mM MgCl2, 1.2 mM NaH2PO4, 15 mM NaHCO3 and 5.5 mM Glucose; pH 7.4. The basilar artery (BA) was carefully dissected from the brain in a physiological buffer solution followed by either OC (naïve animals) or directly mounted in a wire myograph (arteries from rats which has undergone surgical procedures). Segments were incubated for 48 hours at 37° C. in humidified 5% CO2/O2 in DMEM supplemented with streptomycin and penicillin with inhibitors or vehicle (DMSO). Culture media was changed after 24 hours.
For contractility measurements, both incubated BAs (ex vivo) and BAs after surgical procedure (in vivo) were cut into segments and mounted on a pair of metal wires (40 μm) in a myograph bath. The arteries from OC were mounted the same way after 48 hours in media. One wire was attached to a micro-meter screw which allows for fine adjustments of the distance between the wires, controlling the vascular tone.
The segments were equilibrated in physiological buffer aerated with 95% O2/5% CO2, pH of 7.4, temperature set at 37° C. and the wires were separated for isometric pretension at 2 Nm^−1. The arterial segments were exposed two or three times with 60 mM K^+, by exchanging the buffer with a 60 mM K^+ buffer solution. To maintain equal osmolarity, a proportional amount of Na^+ had been removed from the buffer. An absolute cut-off was set at 2.0 mN K^+max for inclusion of arterial segments from rats that underwent the surgical procedure. Endothelium function was evaluated with the addition of 5-HT (3.10^−7 M) followed by carbachol (10^−5 M). For arteries from the OC the protocol was as followed: first a cumulative concentration-response curve to sarafotoxin 6C (S6c, 10^−14-10^−7 M), followed by a concentration-response curve to endothelin-1 (ET-1, 10^−14-10^−7 M). At peak ET-1 (10^−7 M), the buffer was changed to a Ca^2+-free buffer containing 10^−7 M ET-1 and nimodipine (L-type of voltage dependent Ca^2+ channel entry blocker, 10^−7 M). A concentration-response curve to Ca^2+ (0.0125-3 mM) was then performed. When vasodilation was investigated arteries was precontracted with U46619 (1.10^−7-3.10^−7 M) or K^+ (41 mM) and cumulative concentration-response curves was performed by adding calcitonin gene-related peptide (CGRP, 10^−12-10^−7 M), carbachol (10^−10-10^−5 M) or SNP (10^−11-10^−4 M).
Contractile responses of each segment were adjusted according to the length of the artery and are expressed as mN/mm (Nm^−1). […] To compare ET-1 sensitivity, arteries were normalized to the percentage of the individual vessel ET-1max. When the artery reached maximum contraction before the last concentration was added, the curves were constrained to the max contraction. The relative log IC50/log EC50 is the concentration corresponding to a response midway between the estimates of the lower and upper plateaus. The Emax is the maximal contraction in the concentration response curve and ET-1max is the maximal contraction to ET-1. All quantitative data is presented as mean±standard error of the mean (SEM), unless otherwise stated.

[2] = Solubility (statement); format: physicochemical
[3] = system: rat subarachnoid haemorrhage model; test: Rotating pole test after SAH, intraperitoneal treatment; format: in vivo; conditions: SAH + i.p. treatment, 48 hours post-SAH
Procedure: Gross sensorimotor function was evaluated using a rotating pole test, including a baseline evaluation on the day before induction of SAH. Briefly, movement across a 10-rpm rotating pole (45 mm diameter, 150 cm length) was evaluated with a cage at the end that contain the rat's own bedding material (“smells like home”). Rat performance was scored according to the following definitions: Low, the animal is unable to cross the pole without falling off; High, the animal can traverse the entire pole without falling off. All animals were trained to traverse the pole before surgery. Pre-SAH and on day 1 and 2 after surgery, each animal was scored twice for left and right rotation respectively, i.e. 4 counts per animal. Animals were graded by personnel blinded to the experimental groups of the animals. Data are shown percentage as % high score count/total score count.
For the intraperitoneal treatment (i.p) the compound was dissolved in 10% cremophor EL (Kolliphor EL) and 10% PEG400 in NaCl, which also served as vehicle. The total dose was administered as two treatments (6 hours and 24 hours). Animals were given 2.5 ml isotonic saline s.c. to avoid dehydration, immediately after surgery and in conjunction with the treatments.

[4] = system: ETB receptor; test: Intracellular flow cytometry of SMC expressing ETB receptor after SAH; format: in vivo, rat; conditions: i.p. at 6 and 24 h post-SAH
Procedure: The MCAs, BA and the circle of Willis were pooled from one rat. The VSMCs of the cerebral arteries was isolated by a novel technique advanced by the present inventors based on two other protocols (Navone et al, 2013, Nat Protoc; van Beijnum et al, 2008, Nat Protoc). The tissue were disrupted mechanically (scalpel) and then subjected to enzymatic digestion with highly purified Collagenase I and Collagenase II. Isolated cell suspensions were fixed with 4% paraformaldehyde for 30 minutes, washed with PBS and thereafter permeabilized with 0.25% TritonX-100. Cells were resuspended in blocking buffer containing 5% donkey serum and double-stained overnight at 4° C. with primary goat anti-SM22α (1:100, Abcam) or goat isotope control IgG (5 μg/mL, Abcam) and primary antibody rabbit anti-ETB (1:100, Abcam) or rabbit isotope control IgG (10 μg/mL, Abcam) in the same blocking buffer. […] Finally, cell suspensions were diluted to a final volume of 0.5 mL with PBS before analyzed by fluorescent-activated cell sorting (FACS) on the BD FACSVerse machine (BD Biosciences, USA). Fluorescence was induced with a 640 nm red laser. The ratio of SM22α-positive cells expressing ETB was calculated in each sample. Data was analyzed by the BD FACSuite Software.

SMILES: CC(=O)Nc1cccc(-n2c(=O)n(C3CC3)c(=O)c3c(Nc4ccc(I)cc4F)n(C)c(=O)c(C)c32)c1 [trametinib]
- inhibition of S6c-induced contraction (initial screening groups) ([1]; 1 μM inhibitor, 48 h organ culture, S6c contraction relative to 60 mM K+): Highly effective; also recorded: almost completely inhibited
- IC50 ([1]; Rattus norvegicus, 48 h organ culture, inhibition of S6c-induced contraction, read-out: pIC50 (based on the Emax for S6c) (converted)): 20.9 nM
- estimated inhibitor effect in the ex vivo OC study ([1]; at predicted CSF concentration of approximately 10^-7 M): ~75%
- solubility [2]: excellent solubility
- rotating pole Score48 h (% high score count/total score count) [3]: 100%
- increased ETB receptor protein expression in SMC [4]: not significant abolished
